Test results as given in ChEMBL document CHEMBL2440116, “Structure-activity relationships of 2-aminothiazoles effective against Mycobacterium tuberculosis” (Bioorg Med Chem, 2013).

Tested on: Mycobacterium tuberculosis
Experiment: Induction of resistant in Mycobacterium tuberculosis H37Rv in Middlebrook 7H9 broth with glucose at 10 times MIC after 4 to 5 weeks relative to control
Format: functional

O=C(Nc1nc(-c2ccccn2)cs1)c1cccc(Br)c1
fold change (FC): 2
